Source: patent publication US10875851B2, “Factor XIIa inhibitors” (Merck Sharp & Dohme Corp., priority 2016, dated 2020)

What follows are compounds tested against human Factor XIIa (Homo sapiens (Human), UniProt P00748) (assay: Factor XIIa Assay). Conditions: purified human Factor XIIa 500 pM; substrate n-Acetyl-Lys-Pro-Arg-AFC 100 μM; pH 7.4; read-out: FXIIa IC50.
Format: biochemical
In short: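 Purified human FXIIa at 500 pM final with 100 μM n-Acetyl-Lys-Pro-Arg-AFC in 50 mM HEPES, 150 mM NaCl, 5 mM CaCl2, 0.1% PEG 8000, pH 7.4, at room temperature or 37° C. Initial fluorogenic hydrolysis rates measured after enzyme–inhibitor equilibration; IC50 taken where Vi=Vo/2.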

Sequence of human Factor XIIa (P00748 373-615): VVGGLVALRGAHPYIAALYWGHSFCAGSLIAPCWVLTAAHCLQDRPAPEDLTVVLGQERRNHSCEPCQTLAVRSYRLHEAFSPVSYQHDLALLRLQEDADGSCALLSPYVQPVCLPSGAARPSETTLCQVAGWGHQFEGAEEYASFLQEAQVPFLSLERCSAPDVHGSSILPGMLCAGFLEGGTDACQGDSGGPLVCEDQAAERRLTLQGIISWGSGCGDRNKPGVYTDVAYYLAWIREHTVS

IC50 [nM]	SMILES
3.9	CC(C)N[C@H](CCCCN1CCCCC1)C(=O)N1CCN(C2=N[C@@H](C)[C@H](c3ccccc3)O2)C[C@H]1C(=O)NCc1cc2cnccc2s1 [Example 173, (2S)-1-[N-(1-methylethyl)-6-piperidin-1-yl-D-norleucyl]-4-[(4S,5S)-4-methyl-5-phenyl-4,5-dihydro-1,3-oxazol-2-yl]-N-(thieno[3,2-c]pyridin-2-ylmethyl)piperazine-2-carboxamide]
3	C[C@@H]1N=C(N2CCN(C(=O)[C@@H](CCCCN3CCCCC3)NC3CCC(CN)CC3)[C@H](C(=O)NCc3cc4cnccc4s3)C2)O[C@H]1c1ccccc1 (stereo partly drawn) [Example 174, (2S)-1-{N-[4-(aminomethyl)cyclohexyl]-6-piperidin-1-yl-D-norleucyl}-4-[(4S,5S)-4-methyl-5-phenyl-4,5-dihydro-1,3-oxazol-2-yl]-N-(thieno[3,2-c]pyridin-2-ylmethyl)piperazine-2-carboxamide]
6.6	CC(C)N[C@H](CCCCN1CCCCC1)C(=O)N1CCN(C2=N[C@@H](C)[C@H](c3ccccc3)O2)C[C@H]1C(=O)NCc1cccc(Cl)c1 [Example 175, (2S)-N-(3-chlorobenzyl)-1-[N-(1-methylethyl)-6-piperidin-1-yl-D-norleucyl]-4-[(4S,5S)-4-methyl-5-phenyl-4,5-dihydro-1,3-oxazol-2-yl]piperazine-2-carboxamide]
29	C[C@@H]1N=C(N2CCN(C(=O)[C@@H](CCCCN3CCCCC3)NC3CCC(CN)CC3)[C@H](C(=O)NCc3cccc(Cl)c3)C2)O[C@H]1c1ccccc1 (stereo partly drawn) [Example 176, (2S)-1-{N-[4-(aminomethyl)cyclohexyl]-6-piperidin-1-yl-D-norleucyl}-N-(3-chlorobenzyl)-4-[(4S,5S)-4-methyl-5-phenyl-4,5-dihydro-1,3-oxazol-2-yl]piperazine-2-carboxamide]
27.9	C[C@@H]1N=C(N2CCN(C(=O)[C@@H](CCCCN3CCCCC3)NC3CCC(CN)CC3)[C@H](C(=O)NCc3ccc(C(N)=O)s3)C2)O[C@H]1c1ccccc1 (stereo partly drawn) [Example 177, (2S)-1-{N-[4-(aminomethyl)cyclohexyl]-6-piperidin-1-yl-D-norleucyl}-N-[(5-carbamoylthiophen-2-yl)methyl]-4-[(4S,5S)-4-methyl-5-phenyl-4,5-dihydro-1,3-oxazol-2-yl]piperazine-2-carboxamide]
4.6	CC(C)N[C@H](CCCCN1CCCCC1)C(=O)N1CCN(C2=N[C@@H](C)[C@H](c3ccccc3)O2)C[C@H]1C(=O)NCc1cc(CN)cs1 [Example 178, (2S)-N-{[4-(aminomethyl)thiophen-2-yl]methyl}-1-[N-(1-methylethyl)-6-piperidin-1-yl-D-norleucyl]-4-[(4S,5S)-4-methyl-5-phenyl-4,5-dihydro-1,3-oxazol-2-yl]piperazine-2-carboxamide]
1.7	CC(C)N[C@H](CCCCN1CCCCC1)C(=O)N1CCN(C2=N[C@@H](C)[C@H](c3ccccc3)O2)C[C@H]1C(=O)NCc1ccc(CN)c(Cl)c1 [Example 179, (2S)-N-[4-(aminomethyl)-3-chlorobenzyl]-1-[N-(1-methylethyl)-6-piperidin-1-yl-D-norleucyl]-4-[(4S,5S)-4-methyl-5-phenyl-4,5-dihydro-1,3-oxazol-2-yl]piperazine-2-carboxamide]
47.1	CC(C)N[C@H](CCCCN1CCCCC1)C(=O)N1CCN(C2=N[C@@H](C)[C@H](c3ccccc3)O2)C[C@H]1C(=O)NCc1ccc(CN)cc1 [Example 180, (2S)-N-[4-(aminomethyl)benzyl]-1-[N-(1-methylethyl)-6-piperidin-1-yl-D-norleucyl]-4-[(4S,5S)-4-methyl-5-phenyl-4,5-dihydro-1,3-oxazol-2-yl]piperazine-2-carboxamide]

Further lines, the compound ahead of its results:

SMILES	IC50 [nM]
COc1cc(CNC(=O)[C@@H]2CN(C3=N[C@@H](C)[C@H](c4ccccc4)O3)CCN2C(=O)[C@@H](CCCCN2CCCCC2)NC2CCC(CN)CC2)ccc1C(N)=O (stereo partly drawn) [Example 165, (2S)-1-{N-[4-(aminomethyl)cyclohexyl]-6-piperidin-1-yl-D-norleucyl}-N-(4-carbamoyl-3-methoxybenzyl)-4-[(4S,5S)-4-methyl-5-phenyl-4,5-dihydro-1,3-oxazol-2-yl]piperazine-2-carboxamide]	41.1
CC(C)NCCCC[C@@H](NC(C)C)C(=O)N1CCN(C2=N[C@@H](C)[C@H](c3ccccc3)O2)C[C@H]1C(=O)NCc1cccc(Cl)c1 [Example 166, (2S)-1-[N^2,N^6-bis(1-methylethyl)-D-lysyl]-N-(3-chlorobenzyl)-4-[(4S,5S)-4-methyl-5-phenyl-4,5-dihydro-1,3-oxazol-2-yl]piperazine-2-carboxamide]	6.8
C[C@@H]1N=C(N2CCN(C(=O)[C@H](N)CCCCN3CCCCC3)[C@H](C(=O)NCc3cccc(Cl)c3)C2)O[C@H]1c1cccc(Br)c1 [Example 167, (2S)-4-[(4S,5S)-5-(3-bromophenyl)-4-methyl-4,5-dihydro-1,3-oxazol-2-yl]-N-(3-chlorobenzyl)-1-(6-piperidin-1-yl-D-norleucyl)piperazine-2-carboxamide]	36.1
CC(C)N[C@H](CCCCN1CCCCC1)C(=O)N1CCN(C2=N[C@@H](C)[C@H](c3cccc(Br)c3)O2)C[C@H]1C(=O)NCc1cccc(Cl)c1 [Example 168, (2S)-4-[(4S,5S)-5-(3-bromophenyl)-4-methyl-4,5-dihydro-1,3-oxazol-2-yl]-N-(3-chlorobenzyl)-1-[N-(1-methylethyl)-6-piperidin-1-yl-D-norleucyl]piperazine-2-carboxamide]	8.2
CC(C)N[C@H](CCCCN1CCCCC1)C(=O)N1CCN(C2=NC(C)[C@H](c3cccc(C#N)c3)O2)C[C@H]1C(=O)NCc1cccs1 (stereo partly drawn) [Example 169, (2S)-4[5-(3-cyanophenyl)-4-methyl-4,5-dihydro-1,3-oxazol-2-yl]-1-[N-(1-methylethyl)-6-piperidin-1-yl-D-norleucyl]-N-(thiophen-2-ylmethyl)piperazine-2-carboxamide]	12.5
CC[C@@H](C)N[C@H](CCCCN1CCCCC1)C(=O)N1CCN(C2=N[C@@H](C)[C@H](c3ccccc3)O2)C[C@H]1C(=O)NCc1cccc(Cl)c1 [Example 170, (2S)-N-(3-chlorobenzyl)-4-[(4S,5S)-4-methyl-5-phenyl-4,5-dihydro-1,3-oxazol-2-yl]-1-{N-[(1R)-1-methylpropyl]-6-piperidin-1-yl-D-norleucyl}piperazine-2-carboxamide]	2.5
CC(C)N[C@H](CCCCN1CCCCC1)C(=O)N1CCN(C2=N[C@@H](C)[C@H](c3ccccc3)O2)C[C@H]1C(=O)NCc1ccc2[nH]cc(Cl)c2c1 [Example 171, (2S)-N-[(3-chloro-1H-indol-5-yl)methyl]-1-[N-(1-methylethyl)-6-piperidin-1-yl-D-norleucyl]-4-[(4S,5S)-4-methyl-5-phenyl-4,5-dihydro-1,3-oxazol-2-yl]piperazine-2-carboxamide]	0.5
C[C@@H]1N=C(N2CCN(C(=O)[C@@H](CCCCN3CCCCC3)NC3CCC(CN)CC3)[C@H](C(=O)NCc3ccc4[nH]cc(Cl)c4c3)C2)O[C@H]1c1ccccc1 (stereo partly drawn) [Example 172, (2S)-1-{N-[4-(aminomethyl)cyclohexyl]-6-piperidin-1-yl-D-norleucyl}-N-[(3-chloro-1H-indol-5-yl)methyl]-4-[(4S,5S)-4-methyl-5-phenyl-4,5-dihydro-1,3-oxazol-2-yl]piperazine-2-carboxamide]	0.6
